Active and inactive are the calls of the source. No cut-off for these calls is given here.
Legend:
Mus musculus [1] = experiment: Antidiabetic activity in male db/db mouse model assessed as downregulation of FASN gene expression in liver at 2.5 to 10 mg/kg/day, ip administered for 4 weeks by RT-qPCR analysis; type: functional, organism-based; conditions: dose 2.5-10 mg/kg/day
Mus musculus [2] = experiment: Antidiabetic activity in male db/db mouse model assessed as decrease in serum insulin level at 2.5 to 10 mg/kg/day, ip preadministered for 4 weeks followed by glucose administration after 4 to 6 hrs of fasting and measured after 120 mins by intraperitoneal insulin tolerance test; type: functional, organism-based; conditions: dose 2.5-10 mg/kg/day
[3] = target: T1, Peroxisome proliferator-activated receptor gamma (Homo sapiens) (UniProt P37231); experiment: Reversible covalent binding affinity to full-length human PPAR-gamma transfected in […] cells at 5 to 60 nM preincubated for 6 hrs followed by rosiglitazone addition and measured after 24 hrs by Firefly and Renilla-Glo luciferase reporter assay; type: cell-based; conditions: filed as partial agonist, dose 5-60 nM, time 30.0 hrs
T1 sequence (whole entry): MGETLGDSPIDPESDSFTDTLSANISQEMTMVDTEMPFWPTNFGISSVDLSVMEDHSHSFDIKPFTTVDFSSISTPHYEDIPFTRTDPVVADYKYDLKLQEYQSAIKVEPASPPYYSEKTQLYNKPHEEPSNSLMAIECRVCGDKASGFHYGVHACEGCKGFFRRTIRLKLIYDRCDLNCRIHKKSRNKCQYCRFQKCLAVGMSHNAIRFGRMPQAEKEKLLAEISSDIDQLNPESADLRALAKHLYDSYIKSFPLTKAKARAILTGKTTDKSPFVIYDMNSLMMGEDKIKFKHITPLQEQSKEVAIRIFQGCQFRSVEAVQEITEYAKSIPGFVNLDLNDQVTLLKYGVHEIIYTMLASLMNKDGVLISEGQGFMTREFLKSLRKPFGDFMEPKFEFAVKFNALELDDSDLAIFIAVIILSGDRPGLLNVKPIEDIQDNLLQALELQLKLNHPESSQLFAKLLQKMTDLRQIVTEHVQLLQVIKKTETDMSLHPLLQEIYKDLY

[4] = target: T1, Peroxisome proliferator-activated receptor gamma (Homo sapiens); experiment: Reversible covalent binding affinity to recombinant GST-tagged human PPAR-gamma ligand binding domain (E235 to Y505 residues) extracted from Escherichia coli BL21 (DE3) cells at 500 nM measured upto 240 mins by TR-FRET assay; conditions: filed as partial agonist
3T3-L1 [5] = experiment: Insulin sensitizing activity in mouse 3T3-L1 cells assessed as downregulation of SOCS3 gene expression at 1 uM measured after 48 hrs by RT-qPCR analysis; type: functional, cell-based
Mus musculus [6] = experiment: Antidiabetic activity in male db/db mouse model assessed as downregulation of FASN gene expression in white adipose tissue at 2.5 to 10 mg/kg/day, ip administered for 4 weeks by RT-qPCR analysis; type: functional, organism-based; conditions: dose 2.5-10 mg/kg/day
Mus musculus [7] = experiment: Antidiabetic activity in male db/db mouse model assessed as increase in ADIPOQ protein abundance in liver at 2.5 to 10 mg/kg/day, ip administered for 4 weeks by Western blotting analysis; type: functional, organism-based; conditions: dose 2.5-10 mg/kg/day
Mus musculus [8] = experiment: Antidiabetic activity in male db/db mouse model assessed as increase in ANGPTL4 protein abundance in liver at 2.5 to 10 mg/kg/day, ip administered for 4 weeks by Western blotting analysis; type: functional, organism-based; conditions: dose 2.5-10 mg/kg/day
Mus musculus [9] = experiment: Downregulation of PPAR-gamma protein expression in male db/db mouse white adipose tissue at 2.5 to 10 mg/kg/day, ip administered for 4 weeks by Western blotting analysis; type: functional, organism-based; conditions: dose 2.5-10 mg/kg/day
[10] = target: T2, Peroxisome proliferator-activated receptor alpha (Homo sapiens) (UniProt Q07869); experiment: Binding affinity to PPAR-alpha (unknown origin) at 0.5 uM in presence of fluormone pan-PPAR green tracer by TR-FRET assay
T2 sequence (whole entry): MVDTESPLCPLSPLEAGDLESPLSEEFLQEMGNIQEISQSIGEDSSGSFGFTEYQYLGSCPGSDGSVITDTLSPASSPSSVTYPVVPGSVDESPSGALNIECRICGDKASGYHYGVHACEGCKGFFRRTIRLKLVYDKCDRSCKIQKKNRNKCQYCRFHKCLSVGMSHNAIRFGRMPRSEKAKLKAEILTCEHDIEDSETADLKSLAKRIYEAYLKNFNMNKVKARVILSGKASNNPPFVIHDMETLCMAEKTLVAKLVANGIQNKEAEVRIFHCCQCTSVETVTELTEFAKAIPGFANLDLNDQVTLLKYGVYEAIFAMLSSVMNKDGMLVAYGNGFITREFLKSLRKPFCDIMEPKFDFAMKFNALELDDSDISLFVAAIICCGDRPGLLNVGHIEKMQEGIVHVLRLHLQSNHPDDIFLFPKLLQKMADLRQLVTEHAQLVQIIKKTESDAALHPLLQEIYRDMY

Mus musculus [11] = experiment: Antidiabetic activity in male db/db mouse model assessed as increase in ADIPOQ protein abundance in white adipose tissue at 2.5 to 10 mg/kg/day, ip administered for 4 weeks by Western blotting analysis; type: functional, organism-based; conditions: dose 2.5-10 mg/kg/day
Mus musculus [12] = experiment: Antidiabetic activity in male db/db mouse model assessed as increase in Glut4 protein abundance in liver at 2.5 to 10 mg/kg/day, ip administered for 4 weeks by Western blotting analysis; type: functional, organism-based; conditions: dose 2.5-10 mg/kg/day
[13] = target: T1, Peroxisome proliferator-activated receptor gamma (Homo sapiens); experiment: Covalent binding affinity to recombinant PPAR-gamma ligand binding domain (unknown origin) incubated for 30 mins by high-performance liquid chromatography Fourier transform mass spectrometric analysis; conditions: filed as partial agonist
3T3-L1 [14] = experiment: Inhibition of adipogenesis in mouse 3T3-L1 cells assessed as downregulation of aP2 gene expression at 1 uM measured after 48 hrs by RT-qPCR analysis; type: functional, cell-based
Mus musculus [15] = experiment: Effect on cdk5 protein expression in male db/db mouse liver at 2.5 to 10 mg/kg/day, ip administered for 4 weeks by Western blotting analysis; type: functional, organism-based; conditions: dose 2.5-10 mg/kg/day
[16] = target: T3, Peroxisome proliferator-activated receptor delta (Homo sapiens) (UniProt Q03181); experiment: Binding affinity to PPAR-delta (unknown origin) at 0.5 uM in presence of fluormone pan-PPAR green tracer by TR-FRET assay
T3 sequence (whole entry): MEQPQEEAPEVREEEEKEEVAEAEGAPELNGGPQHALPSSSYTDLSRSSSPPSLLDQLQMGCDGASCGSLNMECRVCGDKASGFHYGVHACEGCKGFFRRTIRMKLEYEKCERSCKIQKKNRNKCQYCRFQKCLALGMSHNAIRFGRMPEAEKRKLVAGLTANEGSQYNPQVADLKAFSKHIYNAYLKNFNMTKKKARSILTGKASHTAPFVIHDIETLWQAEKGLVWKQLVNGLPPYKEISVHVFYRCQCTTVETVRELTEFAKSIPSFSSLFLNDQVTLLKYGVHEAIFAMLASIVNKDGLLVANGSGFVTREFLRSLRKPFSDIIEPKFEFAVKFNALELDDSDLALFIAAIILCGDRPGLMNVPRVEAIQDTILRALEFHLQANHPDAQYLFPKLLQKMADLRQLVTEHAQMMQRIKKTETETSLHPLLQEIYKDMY

Mus musculus [17] = experiment: Antidiabetic activity in male db/db mouse model assessed as downregulation of aP2 gene expression in liver at 2.5 to 10 mg/kg/day, ip administered for 4 weeks by RT-qPCR analysis; type: functional, organism-based; conditions: dose 2.5-10 mg/kg/day
3T3-L1 [18] = experiment: Inhibition of adipocyte differentiation in mouse 3T3-L1 cells assessed as reduction in lipid accumulation at 1 uM measured after 48 hrs by Oil red O staining based inverted microscopic analysis; type: functional, cell-based

**Q.** For `Cc1ccc(S(=O)(=O)Oc2ccc(S3(=O)=N[Se]c4cc(OS(=O)(=O)c5ccc(C)cc5)ccc43)cc2)cc1` (stereo not drawn), which Activity (Mus musculus [1]) is on record?
**A.** The Activity was “Active”.

**Q.** What about the Activity (Mus musculus [2]) of the same compound?
**A.** The Activity was “Active”.

**Q.** What about the Activity [3] of the same compound?
**A.** Its Activity is “Active”.

**Q.** What about the Activity [4] of the same compound?
**A.** The Activity was “Active”.

**Q.** And the Activity (3T3-L1 [5])?
**A.** The Activity was “Active”.

**Q.** What about the Activity (Mus musculus [6]) of the same compound?
**A.** The Activity was “Active”.

**Q.** And the Activity (Mus musculus [7])?
**A.** Its Activity is “Active”.

**Q.** What about the Activity (Mus musculus [8]) of the same compound?
**A.** The Activity was “Active”.

**Q.** What about the Activity (Mus musculus [9]) of the same compound?
**A.** Its Activity is “Active”.

**Q.** And the Activity [10]?
**A.** Its Activity is “inactive”.

**Q.** And the Activity (Mus musculus [11])?
**A.** Its Activity is “Active”.

**Q.** What about the Activity (Mus musculus [12]) of the same compound?
**A.** The Activity was “Active”.

**Q.** What about the Activity [13] of the same compound?
**A.** The Activity was “Active; Mass Change Of 633.50 Da For Ppargamma-Lbd Observed”.

**Q.** And the inhibition (3T3-L1 [14])?
**A.** The inhibition was “Active”.

**Q.** What about the Activity (Mus musculus [15]) of the same compound?
**A.** Its Activity is “inactive”.

**Q.** What about the Activity [16] of the same compound?
**A.** Its Activity is “inactive”.

**Q.** What about the Activity (Mus musculus [17]) of the same compound?
**A.** Its Activity is “Active”.

**Q.** And the inhibition (3T3-L1 [18])?
**A.** The inhibition was “Active”.
